Results on three molecules are retold here after patent publication US11952356B2, “Crystalline form of 1,4-bis[1,2-benzisoselenazol-3(2H)-one]-butane, method for preparing same and use thereof” (SHANGHAI YUANXI MEDICINE CORP., priority 2019, dated 2024).

Series [1] can be described thus: Stability test of crystalline form I (XRD after storage). The format is physicochemical. The settings on record: 40° C./75% relative humidity and 60° C., 3 to 7 days.
Series [2] in a line: Grinding test, crystalline form by XRD. The series is classed as physicochemical.
Series [3] deals with H22 cells. Nature of the series: Tumor inhibitory activity assay in H22 mice. As to conditions: 180 mg/kg once daily oral gavage; for Tumor growth inhibition: n=10. The format is in vivo, mouse. The method, then: After 2 days of acclimation, qualified animals were randomized into 4 groups with 10 animals each. On day 0, H22 cells were grafted at 1×10^4/mouse subcutaneously at the right axilla. The treatment started at 24 h after grafting. Long and short diameters of tumor were recorded daily and the tumor size was calculated according to the formula: long diameter×short diameter^2×0.5236. The body weight was measured every 2 days. After 21 days of treatment, blood was collected from eyeballs after chloral hydrate anesthesia. The mice were sacrificed and tumors were collected quickly.

For series [4], the system named is HBV. The series can be described thus: HBV DNA assay in HepAD38 culture supernatant. The series is classed as cell-based. As to conditions: for Supernatant HBV DVA level: HepAD38 cells. As to the method: (§1) Cell plating: HepAD38 cells were seeded in 24-well plates at a density of 8×10^4 cells/well, each well containing 500 μL of culture medium. Treatment: 9 h after plating, the cells were observed. […] The cells were cultured for 48 h, washed with PBS twice, added with the above drugs, and cultured for another 48 h. After the 48 h, the supernatant was collected, and HBV DNA, HBsAg, and HBeAg in the supernatant were detected. HBV DNA was preferentially determined.
HBV DNA assay in culture supernatant: According to TransGen's Viral Nucleic Acid Extraction kit, the nucleic acid was extracted and by SYBR green qPCR, the viral DNA load was determined.
(§2) Procedures for determining HBV DNA, HBV RNA, HBsAg and HBeAg in cell culture supernatant are as follows:
(§3) The cells were transferred to a larger culture dish, and cultured in a culture medium for 3 days. 1 mL of cell supernatant was collected for detecting HBV DNA and HBV RNA. If the detection was not timely performed, the samples were stored at −20° C.
(§4) 1 mL of collected cell culture supernatant and the last PBS washings collected at 48 h were centrifuged at 5000 rpm for 5 min. 200 μL of the supernatant after centrifugation was added to 5 μL of DNaseI+5 μL of DNasel buffer, well mixed and subjected to instantaneous centrifugation. The supernatant was incubated for 1 h at 37° C., mixed once every 30 min, and subjected to instantaneous centrifugation. After 1 h, 5 μL of EDTA was added and the system was incubated at 65° C. for 10 min before the DNaseI reaction was terminated.
(§5) 200 μL of HBV nucleic acid in cell supernatant was concentrated into a system of 20 μL by using a TransGene's HBV nucleic acid extraction kit.
(§6) The supernatant HBV DNA level and the baseline level of plasmid in PBS after DNase treatment were measured by real-time PCR. After reverse transcription of HBV RNA into cDNA, real time PCR was performed to detect the level.

The test system of series [5] is HBV. The series can be described thus: HBV RNA assay in cell culture supernatant. The series is classed as cell-based. The method, then: as §1, §2, §3, §4, §5, §6
(2) cDNA quantitative system after reverse transcription of HBV RNA: […]

For series [6], the system named is HBV. The series can be described thus: HBeAg assay in culture supernatant. The format is cell-based. The method, then: as §1
HBsAg and HBeAg assays in culture supernatant: The assay was time-resolved immunofluorescence (ELISA) according to HBsAg and HBeAg assay kits of PE Corporation.
After 48 h, 1 mL of cell culture supernatant was collected for detecting HBsAg and HBeAg. The cells were washed at least 5 times with PBS. 1 mL of the last PBS washings was collected and used as the baseline for determining whether the plasmids were washed away. Note: when washing the cells, PBS was slowly added into the dish along the wall of the dish without resuspending the cells. The dish was then gently shaken to wash the cells, and the residual PBS was discarded after each washing to minimize the plasmid residues.

Series [7] deals with hepatic fibrosis animal model. The series can be described thus: CCl4-induced hepatic fibrosis animal model. The format is in vivo, Balb/c mice. The settings on record: for average body weight / ALB (serum) / ALP (serum) / ALT (serum) / AST (serum) / TGF (serum) / TP (serum) / TrxR1 (serum): end of study; for ALB (serum) / ALP (serum) / ALT (serum) / AST (serum) / TGF (serum) / TP (serum) / TrxR1 (serum): model group = 1.00. As to the method:
Animals: Balb/c inbred mice, male, six weeks old, purchased from Peking University, Health Science Center, Department of Laboratory Animal Science, with license number SCXK(Jing)2016-0010. The breeding environment was clean. The accommodation temperature was 25±2° C. The mice were bred in 12-hour light/darkness cycle, and had sufficient food and water supply.
After being prepared into a solution or suspension, the compound was administered to the mice at a dose of 5 mL/Kg.
20 male Balb/c mice aged 6 weeks were randomized into 4 groups. After a staged gradient induction using 25% CCl4 for 4 weeks (three times a week), the treatment started in the BSL (90 mg/kg) group and the BSM (180 mg/kg) group once a day, and the control group and model group were administered with 5‰ CMC-Na solution. After 8 weeks of induction, the mice were sacrificed and the blood was collected and centrifuged at 3000 rpm for 15 min to give the serum for detecting TGF-β1, TrxR1, AST, ALT, ALP, TP and the expression (hepatic fibrosis animal model is shown in FIG. 6). Part of liver was fixed with 4% paraformaldehyde, and subjected to immunohistochemical HE staining and Masson staining. Expressions of α-SMA and Collagen I in liver tissue were detected immunohistochemically. Part of liver was preserved in liquid nitrogen.

Setting [8] is: BSL and BSM groups vs model group.

Like-named read-outs stand apart in the source and are kept apart here.

Take `O=c1c2ccccc2[se]n1CCCCn1[se]c2ccccc2c1=O` [Crystalline form I, 1,4-BIS[1,2-BENZISOSELENAZOL-3(2H)-one]-butane]: the “XRD pattern after storage” value in series [1] was “unchanged”. Besides, in series [2] (listed as Example 1), the “Crystalline form after grinding (XRD)” value is reported as “Crystalline form I”. In addition, in series [3] (after 21 days of treatment), the Mean tumor weight stood at 138.33 mg. For the same molecule, the “Tumor growth inhibition (tumor weight)” value in series [3] (after 21 days of treatment) is listed as 88.70%; in series [3] (after 21 days of treatment, listed as crystalline form I), “up to 88.7%”. Besides, the Tumor growth inhibition in series [3] (day 9, tumor size) was 70.42%; in series [3] (day 10, tumor size) it was 78.32%; in series [3] (day 11, tumor size) it was 76.31%; in series [3] (day 12, tumor size) it was 78.27%; in series [3] (day 13, tumor size) it was 76.03%; in series [3] (day 14, tumor size), 72.24%. The Tumor growth inhibition turned out to be 65.74% in series [3] (day 15, tumor size); 76.97% in series [3] (day 16, tumor size); 78.21% in series [3] (day 17, tumor size); 82.33% in series [3] (day 18, tumor size); 87.15% in series [3] (day 19, tumor size); 88.49% in series [3] (day 20, tumor size). Moreover, the Tumor growth inhibition in series [3] (day 21, tumor size) is 86.67%. Further, the “Supernatant HBV DVA level” value in series [4] (0.5 μM) amounted to 62%; in series [4] (1.0 μM) it was 63%; in series [4] (5.0 μM) it was 70%. In series [4] (summary in words), the “Inhibition effect on HBV DNA” value is listed as “good inhibition effect”. Besides, the “Supernatant HBV RNA level” value came out at 48% in series [5] (0.5 μM), 42% in series [5] (1.0 μM) and 43% in series [5] (5.0 μM). For the same molecule, the “Supernatant HBeAg level” value amounted to 22% in series [6] (0.5 μM), 17% in series [6] (1.0 μM) and 43.1%^ in series [6] (5.0 μM). For the same molecule, the “Inhibition effect on supernatant HBeAg” value in series [6] (summary in words) is recorded as “good inhibition effect”. In addition, the average body weight in series [7] (BSL 90 mg/kg once a day, n ≥ 4) turned out to be 17 g; in series [7] (BSL 90 mg/kg), 17.00 ± 0.68 g; in series [7] (BSM 180 mg/kg once a day, n ≥ 4), 18 g; in series [7] (BSM 180 mg/kg) it was 18.04 ± 2.23 g. In addition, the “ALB (serum)” value in series [7] (BSL 90 mg/kg) is recorded as 1.83; in series [7] (BSM 180 mg/kg) it was 1.47. Moreover, the “ALP (serum)” value in series [7] (BSL 90 mg/kg) is listed as 0.82; in series [7] (BSM 180 mg/kg), 0.73. Further, the “ALT (serum)” value in series [7] (BSL 90 mg/kg) is 0.48; in series [7] (BSM 180 mg/kg), 0.39. Moreover, the “AST (serum)” value in series [7] (BSL 90 mg/kg) came out at 0.29; in series [7] (BSM 180 mg/kg), 0.27. Besides, the “TGF (serum)” value in series [7] (BSL 90 mg/kg) was 0.76; in series [7] (BSM 180 mg/kg), 0.85. In addition, the “TP (serum)” value in series [7] (BSL 90 mg/kg) amounted to 1.35; in series [7] (BSM 180 mg/kg), 1.36. In addition, the “TrxR1 (serum)” value is reported as 0.82 in series [7] (BSL 90 mg/kg) and 0.89 in series [7] (BSM 180 mg/kg). The “Collagen1 expression in liver (staining)” value in series [7] (setting [8]) is on record as “significantly reduced”. Moreover, the “HE staining: symptoms of hepatocyte necrosis and inflammation” value in series [7] (setting [8]) is on record as “significantly reduced”. Besides, the “Masson staining: fibrosis symptoms” value in series [7] (setting [8]) was “gradually relieved”. For the same molecule, the “α-SMA expression in liver (staining)” value in series [7] (setting [8]) is given as “significantly reduced”. Moreover, in series [7] (treatment groups (BSL 90 mg/kg, BSM 180 mg/kg) vs model group), the “Liver surface symptoms (roughness, granular sensation)” value is “improved”.
As for `O=c1c2ccccc2[se]n1CCCCn1[se]c2ccccc2c1=O` [Crystalline form I-a, 1,4-BIS[1,2-BENZISOSELENAZOL-3(2H)-one]-butane], the “Crystalline form after grinding (XRD)” value in series [2] is recorded as “crystalline form I”; in series [2] (listed as Comparative Example 1), “Crystalline form I”; in series [2] (listed as Comparative Example 2), “Crystalline form I”; in series [2] (listed as Comparative Example 3), “Crystalline form I”.
For the molecule `C=C1[C@H](CO)[C@@H](O)C[C@@H]1n1cnc2c(=O)[nH]c(N)nc21` [ETV, entecavir, reference compound], the “Supernatant HBV DVA level” value in series [4] (ETV concentration not given) was 80%. Moreover, the “Supernatant HBeAg level” value in series [6] (ETV concentration not given) turned out to be 36.8%.
